{"source": "ChEMBL document CHEMBL1770065", "about": "“Discovery of a clinical candidate from the structurally unique dioxa-bicyclo[3.2.1]octane class of sodium-dependent glucose cotransporter 2 inhibitors” (J Med Chem, 2011)", "key": {"[1]": {"assay": "Apparent intrinsic clearance in human hepatocytes assessed per million of cells", "type": "ADME, cell-based, Liver, Hepatocyte"}, "[2]": {"assay": "Lipophilicity, log D of the compound", "type": "physicochemical", "settings": "octanol/water"}, "[3]": {"assay": "Apparent intrinsic clearance in human liver microsomes assessed per mg of protein", "type": "ADME, Microsome"}, "[4]": {"target": "T1, Sodium/glucose cotransporter 2 (Homo sapiens, UniProt P31639)", "T1 sequence (P31639 whole entry)": "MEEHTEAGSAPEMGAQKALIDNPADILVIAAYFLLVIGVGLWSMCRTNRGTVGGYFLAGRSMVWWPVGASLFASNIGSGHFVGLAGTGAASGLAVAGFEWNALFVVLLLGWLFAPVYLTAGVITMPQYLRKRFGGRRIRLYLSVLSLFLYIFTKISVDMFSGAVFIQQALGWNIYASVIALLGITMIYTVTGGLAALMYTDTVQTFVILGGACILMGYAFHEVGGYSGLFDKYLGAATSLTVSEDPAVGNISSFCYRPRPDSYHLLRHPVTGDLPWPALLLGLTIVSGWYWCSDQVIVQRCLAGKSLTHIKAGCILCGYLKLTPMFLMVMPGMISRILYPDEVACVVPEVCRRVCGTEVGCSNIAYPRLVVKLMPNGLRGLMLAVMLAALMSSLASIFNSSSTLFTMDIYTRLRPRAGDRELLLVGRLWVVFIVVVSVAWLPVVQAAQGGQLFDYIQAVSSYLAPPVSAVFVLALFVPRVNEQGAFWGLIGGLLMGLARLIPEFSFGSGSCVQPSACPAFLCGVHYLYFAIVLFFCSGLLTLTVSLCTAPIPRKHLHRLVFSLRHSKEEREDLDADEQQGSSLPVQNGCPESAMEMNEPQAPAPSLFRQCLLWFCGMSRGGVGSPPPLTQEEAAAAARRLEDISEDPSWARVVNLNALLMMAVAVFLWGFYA", "assay": "Inhibition of human SGLT2 expressed in CHO cells assessed as inhibition of methyl alpha-D-glucopyranoside uptake after 1 hr", "type": "cell-based"}, "[5]": {"target": "T2, Sodium/glucose cotransporter 1 (Homo sapiens, UniProt P13866)", "T2 sequence (P13866 whole entry)": "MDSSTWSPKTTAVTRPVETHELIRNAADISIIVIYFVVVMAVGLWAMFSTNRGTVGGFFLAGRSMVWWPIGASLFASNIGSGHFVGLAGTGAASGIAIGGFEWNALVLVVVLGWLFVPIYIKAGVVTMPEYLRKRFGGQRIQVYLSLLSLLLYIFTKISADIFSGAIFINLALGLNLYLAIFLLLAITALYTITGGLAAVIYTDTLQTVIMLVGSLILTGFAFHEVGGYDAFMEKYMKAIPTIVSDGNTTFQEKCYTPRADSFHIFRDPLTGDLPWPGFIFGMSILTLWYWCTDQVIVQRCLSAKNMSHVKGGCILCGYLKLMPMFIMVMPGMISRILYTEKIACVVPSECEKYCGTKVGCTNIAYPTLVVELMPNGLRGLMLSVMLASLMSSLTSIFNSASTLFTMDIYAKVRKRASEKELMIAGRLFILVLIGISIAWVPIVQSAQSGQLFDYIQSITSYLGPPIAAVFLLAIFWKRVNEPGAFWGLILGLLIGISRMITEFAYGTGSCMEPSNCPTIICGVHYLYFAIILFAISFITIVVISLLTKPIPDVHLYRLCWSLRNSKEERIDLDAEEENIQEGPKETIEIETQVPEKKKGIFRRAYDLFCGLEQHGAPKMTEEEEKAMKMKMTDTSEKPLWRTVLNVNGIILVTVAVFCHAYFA", "assay": "Inhibition of human SGLT1 expressed in CHO cells assessed as inhibition of methyl alpha-D-glucopyranoside uptake after 1 hr", "type": "cell-based"}, "[6]": {"assay": "Half life in Sprague-Dawley rat at 2 mg/kg, iv", "type": "ADME, organism-based", "design": "dose 2 mg/kg, route intravenous", "settings": "in vivo"}, "[7]": {"assay": "Renal clearance in Sprague-Dawley rat at 2 mg/kg, iv", "type": "ADME, organism-based, Kidney", "design": "dose 2 mg/kg, route intravenous", "settings": "in vivo"}, "Rattus norvegicus": {"test_system": "Rattus norvegicus", "assay": "Hepatic clearance in Sprague-Dawley rat at 2 mg/kg, iv", "type": "ADME, organism-based, Liver", "design": "dose 2 mg/kg, route intravenous", "settings": "in vivo"}, "Plasma [8]": {"test_system": "Plasma", "assay": "Fraction unbound in rat plasma at 1000 ng/mL by equilibrium dialysis method", "type": "ADME, cell-free"}, "Plasma [9]": {"test_system": "Plasma", "assay": "Fraction unbound in human plasma at 1000 ng/mL by equilibrium dialysis method", "type": "ADME, cell-free"}}}
{"smiles": "COc1ccc(Cc2cc([C@@H]3O[C@H](CO)[C@@H](O)[C@H](O)[C@H]3O)ccc2Cl)cc1", "values": [{"measurement": "hepatocyte CLint", "setting": "[1]", "result": "< 2", "unit": "µL/min/1e6 cells"}, {"measurement": "logD", "setting": "[2]", "result": 3}, {"measurement": "microsomal CLint", "setting": "[3]", "result": "< 9", "unit": "µL/min/mg"}]}
{"smiles": "COc1ccc(Cc2cc([C@@H]3O[C@H](CO)[C@@H](O)[C@H](O)[C@H]3O)ccc2C)cc1", "values": [{"measurement": "hepatocyte CLint", "setting": "[1]", "result": 3.4, "unit": "µL/min/1e6 cells"}, {"measurement": "logD", "setting": "[2]", "result": 2.4}, {"measurement": "microsomal CLint", "setting": "[3]", "result": "< 8", "unit": "µL/min/mg"}]}
{"smiles": "CCOc1ccc(Cc2cc([C@]34OC[C@](CO)(O3)[C@@H](O)[C@H](O)[C@H]4O)ccc2C)cc1", "values": [{"measurement": "hepatocyte CLint", "setting": "[1]", "result": 2, "unit": "µL/min/1e6 cells"}, {"measurement": "logD", "setting": "[2]", "result": 3}, {"measurement": "IC50", "setting": "[4]", "result": 1.11, "unit": "nM"}, {"measurement": "IC50", "setting": "[5]", "result": 958, "unit": "nM"}, {"measurement": "microsomal CLint", "setting": "[3]", "result": 8.9, "unit": "µL/min/mg"}]}
{"smiles": "COc1ccc(Cc2cc([C@]34OC[C@](CO)(O3)[C@@H](O)[C@H](O)[C@@H]4O)ccc2Cl)cc1", "values": [{"measurement": "hepatocyte CLint", "setting": "[1]", "result": 2.3, "unit": "µL/min/1e6 cells"}, {"measurement": "logD", "setting": "[2]", "result": 3.9}, {"measurement": "IC50", "setting": "[4]", "result": 43.1, "unit": "nM"}, {"measurement": "IC50", "setting": "[5]", "result": "> 10000", "unit": "nM"}, {"measurement": "microsomal CLint", "setting": "[3]", "result": 15, "unit": "µL/min/mg"}]}
{"smiles": "CCc1ccc(Cc2cc([C@@H]3OC4(CNC4)[C@@H](O)[C@H](O)[C@H]3O)ccc2C)cc1", "values": [{"measurement": "hepatocyte CLint", "setting": "[1]", "result": "< 2", "unit": "µL/min/1e6 cells"}, {"measurement": "logD", "setting": "[2]", "result": 3.2}, {"measurement": "microsomal CLint", "setting": "[3]", "result": 32, "unit": "µL/min/mg"}]}
{"smiles": "CCOc1ccc(Cc2cc([C@]34OC[C@](CO)(O3)[C@@H](O)[C@H](O)[C@@H]4O)ccc2Cl)cc1", "values": [{"measurement": "logD", "setting": "[2]", "result": 3.8}, {"measurement": "IC50", "setting": "[4]", "result": 89.9, "unit": "nM"}, {"measurement": "IC50", "setting": "[5]", "result": "> 10000", "unit": "nM"}]}
{"smiles": "COc1ccc(Cc2cc([C@]34OC[C@](CO)(O3)[C@@H](O)[C@H](O)[C@H]4O)ccc2Cl)cc1", "values": [{"measurement": "hepatocyte CLint", "setting": "[1]", "result": 2, "unit": "µL/min/1e6 cells"}, {"measurement": "logD", "setting": "[2]", "result": 3.2}, {"measurement": "IC50", "setting": "[4]", "result": 0.882, "unit": "nM"}, {"measurement": "microsomal CLint", "setting": "[3]", "result": 9.2, "unit": "µL/min/mg"}, {"measurement": "half-life", "setting": "[6]", "result": 1.6, "unit": "h"}]}
{"smiles": "COc1ccc(Cc2cc([C@@H]3OC4(COC4)[C@@H](O)[C@H](O)[C@H]3O)ccc2C)cc1", "values": [{"measurement": "CL renal", "setting": "[7]", "result": 1.8, "unit": "mL/min/kg"}, {"measurement": "hepatocyte CLint", "setting": "[1]", "result": 44, "unit": "µL/min/1e6 cells"}, {"measurement": "logD", "setting": "[2]", "result": 3}, {"measurement": "IC50", "setting": "[4]", "result": 6.98, "unit": "nM"}, {"measurement": "CL", "setting": "Rattus norvegicus", "result": 20.5, "unit": "mL/min/kg"}, {"measurement": "microsomal CLint", "setting": "[3]", "result": 12, "unit": "µL/min/mg"}, {"measurement": "half-life", "setting": "[6]", "result": 1.9, "unit": "h"}]}
{"smiles": "COc1ccc(Cc2cc([C@]34OC[C@](CO)(O3)[C@@H](O)[C@H](O)[C@H]4O)ccc2C)cc1", "values": [{"measurement": "Fu", "setting": "Plasma [8]", "result": 18.6, "unit": "%"}, {"measurement": "hepatocyte CLint", "setting": "[1]", "result": 2.1, "unit": "µL/min/1e6 cells"}, {"measurement": "logD", "setting": "[2]", "result": 2.6}, {"measurement": "IC50", "setting": "[4]", "result": 1.07, "unit": "nM"}, {"measurement": "IC50", "setting": "[5]", "result": 506, "unit": "nM"}, {"measurement": "Fu", "setting": "Plasma [9]", "result": 20.6, "unit": "%"}, {"measurement": "microsomal CLint", "setting": "[3]", "result": "< 8", "unit": "µL/min/mg"}]}
